Measurements as given in US20260132160A1, “IRON REPLACEMENT TREATMENTS” (The General Hospital Corporation, priority 2022, published 2026).

Columns and labels:
[1] = cited from earlier work
[2] = Stability of Fe-BBG against trans-chelation by endogenous chelators (UV-vis); type: physicochemical
From the text: In other words, the ligand BBG binds to Fe^3+ with an estimated 230±40 times higher affinity than citrate.

holo-transferrin = holo-transferrin (Homo sapiens, UniProt P02787); assay: Fe removal from holo-transferrin by BBG ligand; type: biochemical; conditions: 24 h, pH 7.4, 37° C.
Description: Solutions of 20 μM holo-transferrin and BBG of concentration ranging between 0 and 100 μM (0-5 molar equivalents) were incubated for 24 h in pH 7.4 50 mM HEPES buffer supplemented with 25 mM carbonate at 37° C., and Fe removal from transferrin was monitored using fluorescence spectroscopy (excitation wavelength: 280 nm).
In another experiment, […] holo-transferrin and was incubated with 100 μM BBG (10 molar equivalents) for 24 h in pH 7.4 50 mM HEPES buffer supplemented with 25 mM carbonate at 37° C., and Fe removal monitored by urea gel electrophoresis assay, FIG. 11B.

[3] = pH-potentiometric titration, Cu2+ complex; type: physicochemical; conditions: pH 7.4
Description: (§1) The aqueous solutions thermodynamics of BBG and its corresponding complexes of Fe^3+, Cu^2+, and Zn^2+ were interrogated through pH-potentiometric titration of BBG (L) in the absence and presence of 1 molar equivalent of Fe^3+, Cu^2+, or Zn^2+, FIG. 13A.
(§2) pH-potentiometric measurements were performed using an Orion ROSS Ultra pH electrode and temperature-controlled reaction vessel held at 310 K. A standardized solution of 0.10 M NaOH was used as the titrant. The electrode was calibrated prior to each titration by titrating a standardized HCl(aq) solution at ionic strength 0.10 using NaCl as the inert electrolyte with the standardized NaOH titrant. A working slope and intercept were generated by plotting mV as a function of calculated pH, which enabled direct conversion of electrode readings to [H^+] during sample titrations. pH values recorded during the titrations refers to hydrogen ion concentration. All titration samples were prepared in solutions of 0.10 M NaCl in distilled, deionized water. Ligand solutions were prepared by dissolving a weighed quantity into water and concentration was determined from the effective weight of the ligand and confirmed by the quantity of NaOH required to consume 1 molar equivalent of ligand proton. […]

[4] = pH-potentiometric titration, Zn2+ complex; type: physicochemical; conditions: pH 7.4
Description: as §1, §2

[5] = Human blood plasma incubation, ultrafiltration and ICP-MS of metals; conditions: 0-5 mM BBG, 1 h, 37° C., 10 kDa cutoff
Description: The plasma concentrate and ultrafiltrate were assayed for concentrations of Cu and Zn, as well as Mn, Mg, and Ca by ICP-MS.
To illustrate this point, human blood plasma samples containing between 0-5 mM BBG were incubated for 1 h at 37° C. before separation of the low-molecular weight solution components by ultrafiltration through a 10 kDa molecular weight cutoff filter. The plasma concentrate and ultrafiltrate were assayed for concentrations of Cu and Zn, as well as Mn, Mg, and Ca by ICP-MS, FIG. 14.

holo-transferrin, sequence (P02787 20-698): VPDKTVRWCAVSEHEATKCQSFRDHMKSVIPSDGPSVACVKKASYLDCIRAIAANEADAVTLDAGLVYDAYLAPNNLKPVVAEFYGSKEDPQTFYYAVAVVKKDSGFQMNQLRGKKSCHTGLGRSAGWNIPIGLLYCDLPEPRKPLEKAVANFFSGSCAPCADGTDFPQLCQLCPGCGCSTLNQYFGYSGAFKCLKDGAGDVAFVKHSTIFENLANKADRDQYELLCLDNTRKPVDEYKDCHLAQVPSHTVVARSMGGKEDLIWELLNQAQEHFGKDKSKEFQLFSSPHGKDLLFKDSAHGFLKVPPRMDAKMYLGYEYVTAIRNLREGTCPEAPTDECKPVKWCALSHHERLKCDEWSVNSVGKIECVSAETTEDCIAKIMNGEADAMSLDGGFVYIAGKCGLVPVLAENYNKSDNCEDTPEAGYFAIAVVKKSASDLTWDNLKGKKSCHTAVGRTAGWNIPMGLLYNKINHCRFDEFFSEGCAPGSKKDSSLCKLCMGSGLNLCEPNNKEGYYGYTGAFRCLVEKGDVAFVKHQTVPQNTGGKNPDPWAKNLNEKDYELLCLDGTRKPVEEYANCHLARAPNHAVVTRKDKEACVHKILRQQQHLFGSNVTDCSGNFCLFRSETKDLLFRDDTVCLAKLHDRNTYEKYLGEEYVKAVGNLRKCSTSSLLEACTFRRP

Compound	log Kcond at pH 7.4 for Fe^3+, first binding site [1]	log Kcond at pH 7.4 for Fe^3+, second binding site [1]	Fe^3+ affinity relative to endogenous chelators [2]	Fe^3+ affinity relative to citrate ([2]; estimated from citrate challenge)	Fe removal from transferrin (urea gel electrophoresis) (holo-transferrin; 10 μM holo-transferrin, 100 μM BBG (10 molar equivalents))	Fe removal from transferrin (fluorescence spectroscopy) (holo-transferrin; 20 μM holo-transferrin, 0-100 μM BBG)	greater stability of Fe^3+ binding than Cu^2+ [3]	greater stability of Fe^3+ binding than Zn^2+ [4]	metal ion content remaining in the plasma concentrate [5]
transferrin: the iron carrier protein transferrin	about 20.7	~19.4							
O=C(O)CC[C@@H](C(=O)O)N(Cc1ccccc1O)Cc1ccccc1O [BBG, N,N-bis(2-hydroxybenzyl)-L-glutamic acid]			substantially higher affinity	230±40 times	No evidence of Fe removal	No evidence of Fe removal	9 orders of magnitude	15 orders of magnitude	little effect
